The assay concerns L1210 leukemia ip in BDF1 mice, survival T/C. The experiment in a line: NCI In Vivo Anticancer Drug Screen. Data for tumor model L1210 Leukemia (intraperitoneal) in B6D2F1 (BDF1) mice. Conditions: endpoint: mean survival time, higher = longer survival. The gist of the method:
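Tumor cells were implanted, animals were treated, and survival was followed. The result divides the treated measurement by the vehicle-control measurement.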

Where [1] appears, read: dose: 50.0 mg/kg/injection, schedule: Q01DX001 (ip), vehicle: saline.
[2] abbreviates: dose: 100.0 mg/kg/injection, schedule: Q01DX001 (ip), vehicle: saline.
The mark [3] stands for this setting: dose: 200.0 mg/kg/injection, schedule: Q01DX001 (ip), vehicle: saline.
Where [4] appears, read: dose: 400.0 mg/kg/injection, schedule: Q01DX001 (ip), vehicle: saline.
[5] abbreviates: dose: 100.0 mg/kg/injection, schedule: Q01DX009 (ip), vehicle: saline with Tween-80.
Where [6] appears, read: dose: 100.0 mg/kg/injection, schedule: Q04DX003 (ip), vehicle: saline with Tween-80.
Where [7] appears, read: dose: 200.0 mg/kg/injection, schedule: Q01DX009 (ip), vehicle: saline with Tween-80.
Setting [8] is: dose: 200.0 mg/kg/injection, schedule: Q04DX003 (ip), vehicle: saline with Tween-80.
[9] abbreviates: dose: 400.0 mg/kg/injection, schedule: Q04DX003 (ip), vehicle: saline with Tween-80.
Setting [10] is: dose: 100.0 mg/kg/injection, schedule: Q04DX003 (ip), vehicle: saline.
[11] abbreviates: dose: 200.0 mg/kg/injection, schedule: Q04DX003 (ip), vehicle: saline.
Setting [12] is: dose: 400.0 mg/kg/injection, schedule: Q04DX003 (ip), vehicle: saline.
The mark [13] stands for this setting: dose: 100.0 mg/kg/injection, schedule: Q01DX009 (ip), vehicle: saline.
The mark [14] stands for this setting: dose: 200.0 mg/kg/injection, schedule: Q01DX009 (ip), vehicle: saline.
[15] abbreviates: dose: 100.0 mg/kg/injection, schedule: Q01DX001 (ip), vehicle: carboxymethylcellulose (CMC).
Setting [16] is: dose: 200.0 mg/kg/injection, schedule: Q01DX001 (ip), vehicle: carboxymethylcellulose (CMC).
[17] abbreviates: dose: 400.0 mg/kg/injection, schedule: Q01DX001 (ip), vehicle: carboxymethylcellulose (CMC).

Where “and” joins values, the source holds several entries; their conditions need not be identical. Identical values can stand only once. Toxic doses and inconclusive results are not listed.

As to `COc1ccc(-c2oc3ccccc3c(=O)c2O)cc1OC`, the T/C was 87 % of control under setting [1], 98 % of control under setting [2], 91 % of control under setting [3] and 93 % of control under setting [4].
For `Cc1ccc(COC(=O)Nc2ccc(Cl)c([N+](=O)[O-])c2)cc1`, the T/C under setting [5] was 92 % of control; the T/C under setting [6] was 102 % of control; the T/C under setting [7] is 100 % of control; the T/C under setting [8] was 100 % of control; the T/C (dose: 400.0 mg/kg/injection, schedule: Q01DX009 (ip), vehicle: saline with Tween-80) was 95 % of control; the T/C under setting [9] is 100 % of control.
With `O=[N+]([O-])c1cccc(P(=O)(O)O)c1`, the T/C under setting [1] is 115 % of control, the T/C under setting [2] was 107 % of control, the T/C under setting [3] is 97 % of control and the T/C under setting [4] is 103 % of control.
With `O=C(Nc1ccccc1C(F)(F)F)C(c1ccccc1)c1ccccc1`, the T/C by setting is: (dose: 100.0 mg/kg/injection, schedule: Q01DX009 (ip), vehicle: Klucel (hydroxypropylcellulose) (HPC)) 93 % of control; (dose: 100.0 mg/kg/injection, schedule: Q04DX003 (ip), vehicle: Klucel (hydroxypropylcellulose) (HPC)) 96 % of control; (dose: 200.0 mg/kg/injection, schedule: Q01DX009 (ip), vehicle: Klucel (hydroxypropylcellulose) (HPC)) 88 % of control; (dose: 200.0 mg/kg/injection, schedule: Q04DX003 (ip), vehicle: Klucel (hydroxypropylcellulose) (HPC)) 96 % of control; (dose: 400.0 mg/kg/injection, schedule: Q01DX009 (ip), vehicle: Klucel (hydroxypropylcellulose) (HPC)) 90 % of control; (dose: 400.0 mg/kg/injection, schedule: Q04DX003 (ip), vehicle: Klucel (hydroxypropylcellulose) (HPC)) 95 % of control.
Regarding `CCS(=O)(=O)c1ccc(NC(=O)OC2CCC3(C)C(=CCC4C3CCC3(C)C(C(C)CCCC(C)C)CCC43)C2)cc1` (centres undefined), the T/C was 97 % of control (dose: 100.0 mg/kg/injection, schedule: Q01DX001 (sc), vehicle: steriod suspending solution); 100 % of control (dose: 200.0 mg/kg/injection, schedule: Q01DX001 (sc), vehicle: steriod suspending solution); 94 % of control (dose: 400.0 mg/kg/injection, schedule: Q01DX001 (sc), vehicle: steriod suspending solution).
As to `CCC(NC(C)=O)C(=O)O` (centres undefined), the T/C is, setting by setting: (dose: 100.0 mg/kg/injection, schedule: Q04DX002 (ip), vehicle: saline) 101 % of control; under setting [10], 104 % of control; (dose: 200.0 mg/kg/injection, schedule: Q04DX002 (ip), vehicle: saline) 90 % of control; under setting [11], 96 % of control; (dose: 400.0 mg/kg/injection, schedule: Q04DX002 (ip), vehicle: saline) 116 % of control; under setting [12], 95 % of control.
As to `COC(=O)c1c(OC)cc(OC)cc1OC`, the T/C was 96 % of control (dose: 100.0 mg/kg/injection, schedule: Q01DX009 (ip), vehicle: other); 100 % of control under setting [10]; 96 % of control (dose: 200.0 mg/kg/injection, schedule: Q01DX009 (ip), vehicle: other); 97 % of control under setting [11]; 94 % of control (dose: 400.0 mg/kg/injection, schedule: Q01DX009 (ip), vehicle: other); 95 % of control under setting [12].
With `C#CCOP(=O)(OCC)OCC`, the T/C under setting [13] is 105 % of control and the T/C under setting [14] was 103 % of control.
`CSCCC(NC(=O)c1ccccc1)C(N)=O` (centres undefined): the T/C runs as follows: under setting [5], 90 % of control; under setting [7], 89 % of control.
For `CC1(C)CN=C(c2ccc([N+](=O)[O-])cc2)O1`, the T/C runs as follows: (dose: 75.0 mg/kg/injection, schedule: Q04DX003 (ip), vehicle: Klucel (hydroxypropylcellulose) (HPC)) 108 % of control; (dose: 150.0 mg/kg/injection, schedule: Q04DX003 (ip), vehicle: Klucel (hydroxypropylcellulose) (HPC)) 94 % of control; (dose: 300.0 mg/kg/injection, schedule: Q04DX003 (ip), vehicle: Klucel (hydroxypropylcellulose) (HPC)) 89 % of control.
For the compound `O=S(=O)(NCCCl)c1cc(Cl)c(Cl)cc1Cl`, the T/C was 97 % of control under setting [15], 94 % of control under setting [16] and 94 % of control under setting [17].
On to `C1CCC(N(CCN(C2CCCCC2)C2CCCCC2)C2CCCCC2)CC1`, for which the T/C by setting is: (dose: 25.0 mg/kg/injection, schedule: Q04DX013 (ip), vehicle: carboxymethylcellulose (CMC)) 100 % of control; (dose: 50.0 mg/kg/injection, schedule: Q04DX013 (ip), vehicle: carboxymethylcellulose (CMC)) 94 % of control; (dose: 100.0 mg/kg/injection, schedule: Q04DX013 (ip), vehicle: carboxymethylcellulose (CMC)) 96 % of control.
With `CCCCC(=O)N1C(=O)/C(=C\N(C)C)c2cc(C=O)ccc21`, the T/C runs as follows: (dose: 100.0 mg/kg/injection, schedule: Q01DX001 (ip), vehicle: Klucel (hydroxypropylcellulose) (HPC)) 90 % of control; (dose: 200.0 mg/kg/injection, schedule: Q01DX001 (ip), vehicle: Klucel (hydroxypropylcellulose) (HPC)) 90 % of control; (dose: 400.0 mg/kg/injection, schedule: Q01DX001 (ip), vehicle: Klucel (hydroxypropylcellulose) (HPC)) 93 % of control.
As to `CCCc1ccc(OC/C=C(\C)CCC2OC2(C)CC)cc1` (centres undefined), the T/C is 92 % of control (dose: 100.0 mg/kg/injection, schedule: Q04DX002 (ip), vehicle: saline with Tween-80); 99 % of control (dose: 200.0 mg/kg/injection, schedule: Q04DX002 (ip), vehicle: saline with Tween-80); 92 % of control (dose: 400.0 mg/kg/injection, schedule: Q04DX002 (ip), vehicle: saline with Tween-80).
As to `O=S(=O)(Nc1ccccc1F)c1cc(Cl)c(Cl)cc1Cl`, the T/C is 96 % of control under setting [13]; 96 % of control under setting [14]; 94 % of control (dose: 400.0 mg/kg/injection, schedule: Q01DX009 (ip), vehicle: saline).
As to `CN(C)C(=O)Nc1cccc(OC(=O)Nc2ccccc2)c1`, the T/C under setting [6] is 104 % of control, the T/C under setting [8] is 96 % of control and the T/C under setting [9] is 96 % of control.
Turning to `CC1CN=C(c2ccc(NC(=O)C3CCC(C(=O)Nc4ccc(C5=NCC(C)N5)cc4)CC3)cc2)N1` (centres undefined), the T/C reads like this: (dose: 31.0 mg/kg/injection, schedule: Q01DX015 (ip), vehicle: methylcellulose (MC)) 159 % of control; (dose: 62.0 mg/kg/injection, schedule: Q01DX015 (ip), vehicle: methylcellulose (MC)) 113 % of control.
Consider `CCOC(=O)/C(N=O)=C(/O)c1ccccc1`, for which the T/C under setting [6] is 103 % of control, the T/C under setting [8] was 94 % of control and the T/C under setting [9] was 96 % of control.
Turning to `O=C(Nc1ccc(F)cc1)Oc1ccc2ccccc2c1`, the T/C is 103 % of control under setting [15]; 95 % of control and 97 % of control (dose: 100.0 mg/kg/injection, schedule: Q01DX009 (ip), vehicle: carboxymethylcellulose (CMC)); 92 % of control and 98 % of control (dose: 100.0 mg/kg/injection, schedule: Q04DX002 (ip), vehicle: carboxymethylcellulose (CMC)); 94 % of control under setting [16]; 102 % of control and 90 % of control (dose: 200.0 mg/kg/injection, schedule: Q01DX009 (ip), vehicle: carboxymethylcellulose (CMC)); 92 % of control and 102 % of control (dose: 200.0 mg/kg/injection, schedule: Q04DX002 (ip), vehicle: carboxymethylcellulose (CMC)). Also, the T/C runs as follows: under setting [17], 97 % of control; (dose: 400.0 mg/kg/injection, schedule: Q01DX009 (ip), vehicle: carboxymethylcellulose (CMC)) 94 % of control and 90 % of control; (dose: 400.0 mg/kg/injection, schedule: Q04DX002 (ip), vehicle: carboxymethylcellulose (CMC)) 93 % of control.

The values are drawn from PubChem BioAssay AID248 (DTP/NCI, 2004).
